In the Kinase Knowledgebase extract (Sharma et al. 2016):

Target: EGFR (UniProt P00533)
Sequence (P00533 whole entry, looked up): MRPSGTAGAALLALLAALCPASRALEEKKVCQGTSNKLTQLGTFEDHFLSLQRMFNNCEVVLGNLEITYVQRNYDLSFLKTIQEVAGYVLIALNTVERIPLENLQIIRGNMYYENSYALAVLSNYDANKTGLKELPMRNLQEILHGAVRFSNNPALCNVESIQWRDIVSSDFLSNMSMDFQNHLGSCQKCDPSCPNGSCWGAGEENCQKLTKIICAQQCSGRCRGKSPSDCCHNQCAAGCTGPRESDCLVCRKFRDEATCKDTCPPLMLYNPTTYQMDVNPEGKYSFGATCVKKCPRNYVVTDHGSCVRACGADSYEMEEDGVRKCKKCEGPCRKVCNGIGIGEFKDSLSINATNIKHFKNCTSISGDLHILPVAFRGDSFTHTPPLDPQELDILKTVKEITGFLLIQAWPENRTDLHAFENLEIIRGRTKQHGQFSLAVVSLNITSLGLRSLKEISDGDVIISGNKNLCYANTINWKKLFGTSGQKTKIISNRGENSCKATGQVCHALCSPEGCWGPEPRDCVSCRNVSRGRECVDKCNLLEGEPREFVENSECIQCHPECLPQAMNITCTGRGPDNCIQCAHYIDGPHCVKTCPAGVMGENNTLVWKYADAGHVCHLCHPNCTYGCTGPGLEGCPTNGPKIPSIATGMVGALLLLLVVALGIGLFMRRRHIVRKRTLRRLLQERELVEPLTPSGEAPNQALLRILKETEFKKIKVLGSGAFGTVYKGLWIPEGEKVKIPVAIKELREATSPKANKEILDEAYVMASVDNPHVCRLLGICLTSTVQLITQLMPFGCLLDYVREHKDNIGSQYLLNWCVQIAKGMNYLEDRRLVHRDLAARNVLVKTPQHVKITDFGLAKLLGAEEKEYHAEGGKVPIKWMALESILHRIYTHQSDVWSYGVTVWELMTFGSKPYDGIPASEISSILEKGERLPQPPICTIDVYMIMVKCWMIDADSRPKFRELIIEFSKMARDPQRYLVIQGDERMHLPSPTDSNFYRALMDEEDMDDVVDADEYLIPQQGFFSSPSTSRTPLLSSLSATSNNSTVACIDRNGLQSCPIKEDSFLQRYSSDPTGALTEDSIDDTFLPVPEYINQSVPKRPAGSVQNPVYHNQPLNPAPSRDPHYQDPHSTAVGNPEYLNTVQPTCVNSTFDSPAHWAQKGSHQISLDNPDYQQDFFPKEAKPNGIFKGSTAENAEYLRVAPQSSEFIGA

Row | SMILES | IC50 [nM]
1 | COc1cc2c(Nc3ccc(Cl)cc3F)ncnc2cc1O[C@@H]1CO[C@@H]2[C@H]1OC[C@H]2F | < 50
2 | COc1cc2c(Nc3ccc(Cl)c(Cl)c3)ncnc2cc1OCC1CN(C(C)C)CCCO1 (stereo unspecified) | < 50
3 | COc1cc2c(Nc3ccc(Br)c(Cl)c3F)ncnc2cc1OC[C@@H]1CN2CCC[C@H]2C(=O)N1 | < 50
4 | COc1cc2c(Nc3ccc(Cl)c(Cl)c3)ncnc2cc1OCc1csc2ccc(Cl)cc12 | 50 to 1000
5 | CCN1CCN(C)CC1COc1cc2ncnc(Nc3ccc(Cl)c(Cl)c3)c2cc1OC (stereo unspecified) | < 50
6 | COc1cc2c(Nc3cccc(Cl)c3)ncnc2cc1O[C@@H]1CO[C@@H]2[C@H]1OC[C@H]2F | < 50
7 | COc1cc2c(Nc3c(F)cccc3F)ncnc2cc1O[C@@H]1CO[C@@H]2[C@H]1OC[C@H]2F | < 50
8 | CCN1CCCC1c1nc(COc2cc3ncnc(Nc4ccc(Cl)c(Cl)c4)c3cc2OC)no1 (stereo unspecified) | < 50
9 | CCCCCC(=O)N1CCOC(COc2cc3ncnc(Nc4ccc(Cl)c(Cl)c4)c3cc2OC)C1 (stereo unspecified) | < 50
10 | COc1cc2c(Nc3ccc(Cl)cc3Cl)ncnc2cc1O[C@@H]1CO[C@@H]2[C@H]1OC[C@H]2F | < 50
11 | COc1cc2c(Nc3ccc(Cl)c(Cl)c3)ncnc2cc1OCC1CN(S(=O)(=O)Cc2ccccc2)CCO1 (stereo unspecified) | < 50
12 | COc1cc2c(Nc3ccc(Cl)c(Cl)c3)ncnc2cc1OCC1CN(S(=O)(=O)c2ccccc2)CCO1 (stereo unspecified) | < 50
13 | COc1cc2c(Nc3ccc(Cl)c(Cl)c3)ncnc2cc1OCC1CN(c2ccncc2)CCO1 (stereo unspecified) | < 50
14 | CCC(CC)CN1CCOC(COc2cc3ncnc(Nc4ccc(Cl)c(Cl)c4)c3cc2OC)C1 (stereo unspecified) | < 50
15 | COc1cc2c(Nc3ccc(Br)c(C)c3)ncnc2cc1OCC1CN(C)CCO1 (stereo unspecified) | < 50
16 | COc1cc2c(Nc3ccc(Br)c(Cl)c3Cl)ncnc2cc1OC[C@H]1C[C@@H]2CN(C)C[C@@H]2C1 | < 50
17 | COc1cc2c(Nc3ccc(Cl)c(Cl)c3)ncnc2cc1OCc1nnc(-c2ccc(C)cc2)o1 | < 50
18 | COc1cc2c(Nc3ccc(Cl)c(Cl)c3)ncnc2cc1OCC1CCCCC1 | < 50
19 | COc1cc2c(Nc3ccc(Cl)c(Cl)c3)ncnc2cc1OCC1CN(CCCCCCO)CCO1 (stereo unspecified) | < 50
20 | CC(C)Oc1cc2c(Nc3ccc(Cl)c(Cl)c3)ncnc2cc1OCC1CN(C)CCO1 (stereo unspecified) | < 50
21 | COc1cc2c(Nc3ccc(Cl)c(Cl)c3)ncnc2cc1OC[C@@H]1O[C@@H](OC)[C@@H](O)[C@@H](O)[C@H]1O | < 50
22 | COc1cc2c(Nc3ccc(Cl)c(Cl)c3)ncnc2cc1OCC1CN(Cc2ccccn2)CCO1 (stereo unspecified) | < 50
23 | COc1cc2c(Nc3ccc(Cl)c(Cl)c3)ncnc2cc1OCc1csc(N2CCOCC2)n1 | < 50

Row | SMILES | IC50 [nM]
24 | COc1cc2c(Nc3ccc(Br)c(Cl)c3)ncnc2cc1O[C@H]1CO[C@@H]2[C@H]1OC[C@@H]2N1CCCCC1 | < 50
25 | COc1cc2c(Nc3ccc(Cl)c(Cl)c3)ncnc2cc1OCc1csc(-c2ccc(Cl)cc2)n1 | 50 to 1000
26 | COc1cc2c(Nc3ccc(Br)c(Cl)c3)ncnc2cc1O[C@H]1CO[C@@H]2[C@H]1OC[C@@H]2OC(C)=O | < 50
27 | CC[C@@H](C)CN1CCOC(COc2cc3ncnc(Nc4ccc(Cl)c(Cl)c4)c3cc2OC)C1 (stereo partly specified) | < 50
28 | COc1cc2c(Nc3cccc(C(F)(F)F)c3F)ncnc2cc1O[C@@H]1CO[C@@H]2[C@H]1OC[C@H]2F | < 50
29 | CC#CCN1CCOC(COc2cc3ncnc(Nc4ccc(Cl)c(Cl)c4)c3cc2OC)C1 (stereo unspecified) | < 50
30 | COc1cc2c(Nc3ccc(Cl)c(Cl)c3)ncnc2cc1OCC1CN(C(=O)CCC(C)C)CCO1 (stereo unspecified) | < 50
31 | COc1cc2c(Nc3cc(Cl)c(Br)cc3F)ncnc2cc1OCC1CO[C@@H]2[C@@H](OC)CO[C@H]12 (stereo partly specified) | < 50
32 | COc1cc2c(Nc3ccc(Cl)c(Cl)c3)ncnc2cc1OC[C@@H]1CN2CCC[C@@H]2CO1 | < 50
33 | COc1cc2c(Nc3cccc(Br)c3C)ncnc2cc1O[C@H]1CO[C@H]2[C@@H]1OC[C@@H]2OC | < 50
34 | COc1cc2c(Nc3ccc(Cl)c(Cl)c3F)ncnc2cc1OC[C@H]1CN2CCOC[C@H]2CO1 | < 50
35 | COc1cc2c(Nc3ccc(Cl)c(Cl)c3)ncnc2cc1OCC1CN(CC2CC2)CCO1 (stereo unspecified) | < 50
36 | COc1cc2c(Nc3ccc(Cl)c(Cl)c3)ncnc2cc1OCC1CN(C(=O)Cc2ccc(Cl)cc2)CCO1 (stereo unspecified) | < 50
37 | COc1cc2c(Nc3ccc(Cl)c(Cl)c3F)ncnc2cc1OCC1CN(C)C(C)(C)CO1 (stereo unspecified) | < 50
38 | COc1cc2c(Nc3ccc(C)c(Br)c3)ncnc2cc1O[C@@H]1CO[C@@H]2[C@H]1OC[C@H]2F | < 50
39 | COc1cc2c(Nc3ccc(Cl)c(Cl)c3)ncnc2cc1OCc1nc(N2CCN(C)CC2)no1 | < 50
40 | COc1cc(OC)c(Nc2ncnc3cc(O[C@@H]4CO[C@@H]5[C@H]4OC[C@H]5F)c(OC)cc23)cc1Cl | < 50
41 | COc1cc2c(Nc3ccc(Cl)c(Cl)c3)ncnc2cc1OCC1CN(C(N)=NC#N)CCO1 (stereo unspecified) | < 50
42 | COc1cc2c(Nc3ccc(Cl)c(Cl)c3)ncnc2cc1OCC1CN(C(=NC#N)N2CCN(C)CC2)CCO1 (stereo unspecified) | < 50
43 | COc1cc2c(Nc3ccc(Cl)c(Cl)c3Cl)ncnc2cc1OCC1CN(C)CCO1 (stereo unspecified) | < 50
44 | CCCN1CCOC(COc2cc3ncnc(Nc4ccc(Cl)c(Cl)c4)c3cc2OC)C1 (stereo unspecified) | < 50
45 | COc1cc2c(Nc3ccc(Cl)c(Cl)c3)ncnc2cc1OCCC1OCCCO1 | < 50
46 | CCC(=O)CN1CCOC(COc2cc3ncnc(Nc4ccc(Cl)c(Cl)c4)c3cc2OC)C1 (stereo unspecified) | < 50

Row | SMILES | IC50 [nM]
47 | COc1cc2c(Nc3ccc(Cl)c(Cl)c3C)ncnc2cc1OCC1CN(C)CCO1 (stereo unspecified) | < 50
48 | COc1cc2c(Nc3ccc(Cl)c(Cl)c3)ncnc2cc1OCC1CC1 | < 50
49 | COc1cc2c(Nc3ccc(Cl)c(Cl)c3)ncnc2cc1OCc1noc(-c2ccccc2OC)n1 | < 50
50 | COc1cc2c(Nc3cc(Cl)c(Cl)cc3F)ncnc2cc1OC[C@@H]1CN2CCOC[C@H]2CO1 | < 50
51 | CCCC(CCC)C(=O)N1CCOC(COc2cc3ncnc(Nc4ccc(Cl)c(Cl)c4)c3cc2OC)C1 (stereo unspecified) | < 50
52 | COc1cc2c(Nc3ccc(Cl)c(Cl)c3)ncnc2cc1OCCC1CNC(C)(C)CO1 (stereo unspecified) | < 50
53 | CCOC(=O)C(C)N1CCOC(COc2cc3ncnc(Nc4ccc(Cl)c(Cl)c4)c3cc2OC)C1 (stereo unspecified) | < 50
54 | COc1cc2c(Nc3cccc(Cl)c3F)ncnc2cc1O[C@H]1CO[C@@H]2[C@H]1OC[C@@H]2F | < 50
55 | COc1cc2c(Nc3ccc(Cl)c(Cl)c3)ncnc2cc1OCc1nc(N(C)C)no1 | < 50
56 | COc1cc2c(Nc3cc(F)cc(F)c3)ncnc2cc1O[C@@H]1CO[C@@H]2[C@H]1OC[C@H]2F | < 50
57 | COc1cc2c(Nc3ccc(Cl)c(Cl)c3F)ncnc2cc1O[C@H]1CO[C@H]2[C@@H]1OC[C@@H]2OC | < 50
58 | COc1cc2c(Nc3ccc(Cl)c(Cl)c3)ncnc2cc1OCc1noc(C2CCCN2C)n1 (stereo unspecified) | < 50
59 | COc1cc2c(Nc3ccc(Cl)c(Cl)c3)ncnc2cc1OCc1nc(-c2ccncc2)cs1 | < 50
60 | COc1cc2c(Nc3ccc(Br)c(Cl)c3Cl)ncnc2cc1OC[C@@H]1CN2CCOC[C@H]2CO1 | < 50
61 | COc1cc2c(Nc3ccc(Cl)c(Cl)c3)ncnc2cc1OCC1CN(C(=O)c2cccnc2Cl)CCO1 (stereo unspecified) | < 50
62 | COc1cc2c(Nc3ccc(Cl)c(Cl)c3)ncnc2cc1OCC1CN(CC=C(C)C)CCO1 (stereo unspecified) | < 50
63 | COc1cc2c(Nc3cc(Cl)ccc3F)ncnc2cc1OCC1CN(C)CCO1 (stereo unspecified) | < 50
64 | COc1cc2c(Nc3ccc(Cl)c(Cl)c3)ncnc2cc1OCC1CN(CCc2ccccc2)CCO1 (stereo unspecified) | < 50
65 | COc1cc2c(Nc3ccc(Cl)c(Cl)c3)ncnc2cc1OCCC1CN(C)C(C)(C)CO1 (stereo unspecified) | < 50
66 | COc1cc2c(Nc3ccc(Br)cc3C)ncnc2cc1OCC1CN(C)CCO1 (stereo unspecified) | < 50
67 | COc1cc2c(Nc3ccc(Cl)c(Cl)c3)ncnc2cc1OCCN1CCOCC1 | < 50
68 | COc1ccc(-c2nc(COc3cc4ncnc(Nc5ccc(Cl)c(Cl)c5)c4cc3OC)no2)cc1 | < 50
69 | COc1cc2c(Nc3ccc(Br)c(Cl)c3)ncnc2cc1O[C@H]1CO[C@H]2[C@@H]1OC[C@]2(O)C(F)(F)F | < 50

Row | SMILES | IC50 [nM]
70 | COc1cc2c(Nc3cc(Cl)c(Cl)cc3F)ncnc2cc1O[C@@H]1CO[C@@H]2[C@H]1OC[C@H]2F | < 50
71 | COc1cc2c(Nc3ccc(Br)c(Cl)c3Cl)ncnc2cc1OC[C@@H]1CO[C@H]2[C@@H]1OC[C@@H]2O | < 50
72 | COc1cc2c(Nc3ccc(Cl)c(Cl)c3)ncnc2cc1OCC1CN(C)C(C)(C)CO1 (stereo unspecified) | < 50
73 | C=CCCCCCCN1CCOC(COc2cc3ncnc(Nc4ccc(Cl)c(Cl)c4)c3cc2OC)C1 (stereo unspecified) | < 50
74 | CCS(=O)(=O)N1CCOC(COc2cc3ncnc(Nc4ccc(Cl)c(Cl)c4)c3cc2OC)C1 (stereo unspecified) | < 50
75 | COc1cc2c(Nc3ccc(Cl)c(Cl)c3)ncnc2cc1OCc1nc2c(s1)CNCC2 | < 50
76 | COc1cc2c(Nc3ccc(Br)c(Cl)c3)ncnc2cc1O[C@H]1CO[C@@H]2[C@H]1OC[C@@H]2NC(C)=O | < 50
77 | COc1cc2c(Nc3cc(Cl)c(Cl)cc3F)ncnc2cc1O[C@H]1CO[C@H]2[C@@H]1OC[C@@H]2OC | < 50
78 | COc1cc2c(Nc3cccc(Cl)c3F)ncnc2cc1O[C@@H]1CO[C@@H]2[C@H]1OC[C@H]2F | < 50
79 | COCCNC(=NC#N)N1CCOC(COc2cc3ncnc(Nc4ccc(Cl)c(Cl)c4)c3cc2OC)C1 (stereo unspecified) | < 50
80 | COc1cc2c(Nc3ccc(Cl)c(Cl)c3)ncnc2cc1OCc1csc(N(C)C)n1 | < 50
81 | COc1cc2c(Nc3cccc(Cl)c3C)ncnc2cc1O[C@@H]1CO[C@@H]2[C@H]1OC[C@H]2F | < 50
82 | COc1cc2c(Nc3ccc(Cl)c(Cl)c3)ncnc2cc1OCCC1CCCN1C (stereo unspecified) | < 50
83 | COc1cc2c(Nc3ccc(Br)c(Cl)c3)ncnc2cc1O[C@H]1COC[C@H]1OC | < 50
84 | COc1cc2c(Nc3ccc(Cl)c(Cl)c3)ncnc2cc1OCCN1CCCC1 | < 50
85 | COc1cc2c(Nc3ccc(F)cc3F)ncnc2cc1O[C@@H]1CO[C@@H]2[C@H]1OC[C@H]2F | < 50
86 | COc1cc2c(Nc3ccc(Cl)c(Cl)c3)ncnc2cc1OCc1csc(C2CCN(C)CC2)n1 | < 50
87 | COc1cc2c(Nc3ccc(Cl)c(Cl)c3)ncnc2cc1OCCC1CCCCC1 | < 50
88 | COc1cc2c(Nc3ccc(Cl)c(Cl)c3)ncnc2cc1OC[C@H]1C[C@@H]2CN(C)C[C@@H]2C1 | < 50
89 | COc1cc2c(Nc3cc(Cl)c(Cl)cc3F)ncnc2cc1OC[C@H]1C[C@@H]2CN(C)C[C@@H]2C1 | < 50
90 | COCCOc1cc2c(Nc3ccc(Cl)c(Cl)c3)ncnc2cc1OCC1CNCCO1 (stereo unspecified) | < 50
91 | CCCC(C)C(=O)N1CCOC(COc2cc3ncnc(Nc4ccc(Cl)c(Cl)c4)c3cc2OC)C1 (stereo unspecified) | < 50
